The subject of series [1] is Trichophyton mentagrophytes B70554. Description: Antifungal activity in vitro (resazurin susceptibility screen), Inf. G. The series is classed as cell-based. Conditions: for IC50: Trichophyton mentagrophytes. The gist of the method:
(§1)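 Each well was inoculated with 10^3 cfu of fungus onto dried, pre-spotted compound serial dilutions in RPMI-MOPS medium, with fungal growth read by resazurin. Growth was referenced to drug-free culture (100%) and medium-only (0%) controls on each plate.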
(Resazurin is reduced to fluorescent resorufin, in cell work by metabolically active cells.)

Series [2] has as its system Aspergillus fumigatus B42928. Description: Antifungal activity in vitro (resazurin susceptibility screen), Inf. E. The series is classed as cell-based. In short, it runs like this: (§2)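 Compound serial dilutions were spotted onto test plates, kept in the dark at 4 °C for at most 2 weeks. Cryopreserved isolates were diluted 1/1000 in medium just before use and added at 10^3 cfu per well. Each plate carried drug-free culture as 100% growth and RPMI-MOPS medium alone as 0% growth.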

Series [3] is described as follows: Liver metabolic stability assay, mLM. Format: in vitro ADME. Particulars: mouse liver microsomes, 1 mg protein/ml, 5 μM test compound, 15 min, 37 °C. As for the experimental part: (§3) Liver preparations (microsomal fractions) were obtained from BD Gentest (San Jose, Calif., US). Metabolic stability was assessed using the following assay conditions. […] The mixture was pre-incubated at 37° C. for 5 min and the enzymatic reaction was started by addition of 5 μM test compound. After 0 (control) and 15 minutes (min), the reactions were terminated by addition of […] (500 μl). The precipitated material was removed by centrifugation at 1200 g for 10 min. The supernatant was analysed by LC-MS/MS on a ThermoFinnigan LCQ Deca XP ion-trap mass spectrometer equipped with an atmospheric pressure chemical ionisation source. Calculation of %-compound remaining was as described by Kantharaj et al. 2003 ((Kantharaj E., Tuytelaars A, Proost P E A, Ongel Z, van […] (2003). Simultaneous measurement of drug metabolic stability and identification of metabolites using ion-trap mass spectrometry.
In general terms: Microsomes from liver hold many membrane-bound enzymes, among them those of drug oxidation.

Series [4] can be described thus: Liver metabolic stability assay, gpLM. Format: in vitro ADME, guinea pig. As for the experimental part:
as §3

The test system of series [5] is Cryptococcus neoformans B66663. The series can be described thus: Antifungal activity in vitro (resazurin susceptibility screen), Inf. F. The series is classed as cell-based. Conditions: for IC50: Cryptococcus neoformans. The gist of the method:
as §2

The test system of series [6] is Candida parapsilosis B66126. The series can be described thus: Antifungal activity in vitro (resazurin susceptibility screen), Inf. D. The series is classed as cell-based. Conditions: for IC50: Lodderomyces parapsilosis. In short, it runs like this:
as §1

A further series deals with Microsporum canis B68128. The series can be described thus: Antifungal activity in vitro (resazurin susceptibility screen), Inf. B. Format: cell-based. Particulars: for IC50: Microsporum canis. The gist of the method: as §1
Series [7] can be described thus: Liver metabolic stability assay, hLM. The series is classed as in vitro ADME, human. Particulars: human liver microsomes, 1 mg protein/ml, 5 μM test compound, 15 min, 37 °C. As for the experimental part: as §3
For series [8], the system named is Sporothrix schenkii B62482. The series can be described thus: Antifungal activity in vitro (resazurin susceptibility screen), Inf. A. The series is classed as cell-based. Particulars: for IC50: Sporothrix. The gist of the method:
as §2

The subject of series [9] is Trichophyton rubrum B68183. Description: Antifungal activity in vitro (resazurin susceptibility screen), Inf. C. The series is classed as cell-based. In short, it runs like this: as §2
Another series deals with CYP3A4 (Homo sapiens, UniProt P08684). The series can be described thus: Cytochrome P450 inhibition, Protocol A, cDNA expressed proteins, fluorogenic substrates. Format: in vitro ADME. Particulars: % inhibition at 10 μM, cDNA expressed protein; for hCYP3A4_BFC_Pct_Inh: substrate BFC; for hCYP3A4_BQ_Pct_Inh: substrate BQ; for hCYP3A4_DBF_Pct_Inh: substrate DBF. As for the experimental part: (§4) All fluorogenic based assays were performed in Black Costar 96-well plates according to Crespi et al 1997 with minor modifications (Crespi C L, Miller V P & Penman B W (1997). Microtiter plate assays for inhibition of human, drug-metabolizing cytochromes P450. Anal. Biochem. Vol 248, 1898-1900). Assay conditions are outlined in Table 5a. For cytochrome P450 3A4, three different fluorogenic substrates were used. Each reaction mixture consisted of the appropriate concentration of enzyme, NADPH-generating system (“NADPH” means β-nicotinamide adenine dinucleotide phosphate, reduced), substrate in sodium/potassium buffer (pH 7.4). For each cytochrome P450 batch Michealis-Menten kinetics were determined using 11 concentrations.
(§5) Thereafter, further dilutions were made in acetonitrile. […] The compounds were serially diluted to give final concentrations ranging from 1 nM to 10 μM. The reaction mixtures, whereby 1 μL of buffer was replaced by compound solution, were pre-warmed for 5 min at 37° C. and the reaction was initiated by the addition of β-nicotinamide adenine dinucleotide phosphate (NADP+). Reactions were terminated by addition of stopping reagent and the fluorescence was measured using a Fluoroscan (Labsystems, Brussel, Belgium).
(§6) In Table 5a, the following abbreviations were used: 3-cyano-7-ethocycoumarin (CEC), 7-methoxy-4-trifluoromethylcoumarin (MFC), 3-[2-(N,N-diethyl-N-methylamino)ethyl]-7-methoxy-4-methylcoumarin (AMMC), 7-benzyloxy-trifluoromethyl coumarin (BFC), 7-benzyloxyquinoline (BQ) and dibenzyl fluorescein (DBF).

A further series concerns the target CYP2D6 (Homo sapiens, UniProt P10635). The series can be described thus: Cytochrome P450 inhibition, Protocol A, cDNA expressed proteins, fluorogenic substrate. The series is classed as in vitro ADME. Particulars: % inhibition at 10 μM; substrate AMMC; cDNA expressed protein. Here is the method: as §4, §5, §6
The target of another series is CYP2C9 (Homo sapiens, UniProt P11712). The series is described as above. Format: in vitro ADME. Particulars: % inhibition at 10 μM; substrate MFC; cDNA expressed protein. Here is the method:
as §4, §5, §6

A further series deals with T1, CYP1A2 (Homo sapiens, UniProt P05177).
T1 sequence (P05177 1-516): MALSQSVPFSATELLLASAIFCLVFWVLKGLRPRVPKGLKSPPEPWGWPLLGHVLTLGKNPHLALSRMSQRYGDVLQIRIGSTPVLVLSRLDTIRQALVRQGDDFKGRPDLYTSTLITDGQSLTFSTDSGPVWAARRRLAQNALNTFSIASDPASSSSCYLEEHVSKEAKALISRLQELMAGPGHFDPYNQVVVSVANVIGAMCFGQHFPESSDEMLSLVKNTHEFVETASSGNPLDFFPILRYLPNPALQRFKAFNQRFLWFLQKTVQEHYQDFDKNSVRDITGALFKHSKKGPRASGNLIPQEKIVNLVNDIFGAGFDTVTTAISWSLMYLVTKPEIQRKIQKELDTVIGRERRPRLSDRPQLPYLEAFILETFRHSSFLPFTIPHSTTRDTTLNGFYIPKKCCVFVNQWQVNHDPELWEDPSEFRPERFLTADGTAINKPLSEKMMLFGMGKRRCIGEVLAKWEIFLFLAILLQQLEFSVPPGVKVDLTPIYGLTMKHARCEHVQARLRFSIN
Described as above. Particulars: % inhibition at 10 μM; substrate CEC; cDNA expressed protein. The series is classed as in vitro ADME. As for the experimental part: as §4, §5, §6

The mark [10] stands for this setting: guinea pig microsomes, 1 mg protein/ml, 5 μM test compound, 15 min, 37 °C.

Read-outs that look alike come from different tables or passages of the source.

Usually melting point stands for the temperature, or range, at which the solid turns liquid.

Sequence of CYP3A4 (P08684 whole entry): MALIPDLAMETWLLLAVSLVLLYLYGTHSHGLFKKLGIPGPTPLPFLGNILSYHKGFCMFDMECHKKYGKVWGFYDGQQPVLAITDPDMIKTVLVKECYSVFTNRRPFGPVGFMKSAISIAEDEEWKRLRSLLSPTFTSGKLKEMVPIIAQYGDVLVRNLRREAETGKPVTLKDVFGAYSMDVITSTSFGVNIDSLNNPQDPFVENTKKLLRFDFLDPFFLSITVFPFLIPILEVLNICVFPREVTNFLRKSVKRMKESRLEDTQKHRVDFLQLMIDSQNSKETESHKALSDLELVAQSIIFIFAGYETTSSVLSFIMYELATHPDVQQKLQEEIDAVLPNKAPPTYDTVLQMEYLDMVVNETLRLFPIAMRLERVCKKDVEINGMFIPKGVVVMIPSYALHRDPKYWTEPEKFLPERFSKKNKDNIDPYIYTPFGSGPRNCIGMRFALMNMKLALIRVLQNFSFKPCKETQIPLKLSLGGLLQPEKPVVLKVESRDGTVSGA
Sequence of CYP2D6 (P10635 whole entry): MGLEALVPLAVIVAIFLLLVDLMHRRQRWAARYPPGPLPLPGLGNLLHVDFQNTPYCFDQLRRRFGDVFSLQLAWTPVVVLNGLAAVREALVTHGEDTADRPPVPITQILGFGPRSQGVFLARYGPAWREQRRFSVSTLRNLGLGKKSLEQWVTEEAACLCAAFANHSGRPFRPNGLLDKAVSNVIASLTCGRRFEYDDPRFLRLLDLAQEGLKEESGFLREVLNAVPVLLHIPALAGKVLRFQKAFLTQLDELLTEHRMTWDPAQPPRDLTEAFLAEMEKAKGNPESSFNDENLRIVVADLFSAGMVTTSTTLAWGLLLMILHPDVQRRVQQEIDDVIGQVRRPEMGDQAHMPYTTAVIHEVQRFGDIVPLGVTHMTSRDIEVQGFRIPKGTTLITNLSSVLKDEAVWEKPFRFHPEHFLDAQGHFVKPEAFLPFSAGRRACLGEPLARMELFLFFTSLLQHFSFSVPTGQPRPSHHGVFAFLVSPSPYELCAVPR
Sequence of CYP2C9 (P11712 whole entry): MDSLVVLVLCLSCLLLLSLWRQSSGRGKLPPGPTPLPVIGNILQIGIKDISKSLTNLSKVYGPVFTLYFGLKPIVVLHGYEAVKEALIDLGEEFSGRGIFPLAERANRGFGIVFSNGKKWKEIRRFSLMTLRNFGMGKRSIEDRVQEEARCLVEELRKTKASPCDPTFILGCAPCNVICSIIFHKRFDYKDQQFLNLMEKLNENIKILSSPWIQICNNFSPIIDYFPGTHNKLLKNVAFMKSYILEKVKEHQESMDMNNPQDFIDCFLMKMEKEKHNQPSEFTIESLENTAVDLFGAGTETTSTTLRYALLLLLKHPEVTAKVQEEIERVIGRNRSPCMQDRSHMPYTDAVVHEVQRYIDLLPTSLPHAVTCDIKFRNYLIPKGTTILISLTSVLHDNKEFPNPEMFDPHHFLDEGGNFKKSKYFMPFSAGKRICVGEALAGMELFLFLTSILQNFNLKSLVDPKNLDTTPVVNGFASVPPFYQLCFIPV

Consider `CC(O)c1ccc(C2NCc3c(Cl)cccc3-n3cccc32)cc1` (stereo not drawn) [Compound 1, 4-(7-chloro-5,6-dihydro-4H-pyrrolo[1,2-a][1,4]benzodiazepin-4-yl)-alpha-methyl-benzenemethanol], for which the melting point lay in the range of 118.5 to 121.2 °C. In series [1] (B70554, read-out: Inf. G pIC50 (converted)), the IC50 is 12.6 µM. In series [2] (Aspergillus fumigatus, B42928, read-out: Inf. E pIC50 (converted)), the IC50 is over 63.1 µM. In addition, the “%-compound metabolised Met_mLM” value in [3] is on record as 51%. Further, the “%-compound metabolised Met_gpLM” value in series [4] (guinea pig, microsomes, 0.25 h, 5 μM, pH 7.4) was 86%. For the same compound, in series [5] (B66663, read-out: Inf. F pIC50 (converted)), the IC50 is 63.1 µM. In addition, the IC50 in series [6] (B66126, read-out: Inf. D pIC50 (converted)) was over 63.1 µM. The IC50 in the series on Microsporum canis B68128 (B68128, read-out: Inf. B pIC50 (converted)) is 3.16 µM. In series [7], the “%-compound metabolised_Met_hLM” value is given as 43%. Moreover, the IC50 in series [8] (B62482, read-out: Inf. A pIC50 (converted)) is over 63.1 µM. Besides, the IC50 in series [9] (Trichophyton rubrum, B68183, read-out: Inf. C pIC50 (converted)) is 3.16 µM.
`CC(=O)c1ccc(C2=NCc3c(ccc(Cl)c3Cl)-n3cccc32)cc1.Cl` [Compound 21, 1-[4-(7,8-dichloro-6H-pyrrolo[1,2-a][1,4]benzodiazepin-4-yl)phenyl]-ethanone .HCl]: the “Inf. G pIC50” value in [1] (Trichophyton mentagrophytes B70554, 27 °C, 7 days, resa time 24 hours) is under 4.2. Moreover, in series [2] (Aspergillus fumigatus B42928, 27 °C, 48 hours, resa time 17 hours), the “Inf. E pIC50” value is under 4.2. Moreover, the “%-compound metabolised Met_mLM” value in series [3] was determined as 24%. In addition, in series [4] (setting [10]), the “%-compound metabolised Met_gpLM” value is 64%. Also, the “Inf. F pIC50” value in series [5] (Cryptococcus neoformans B66663, 37 °C, 24 hours, resa time 4 hours) is given as under 4.2. At CYP3A4, this compound yielded a hCYP3A4_BFC_Pct_Inh of 0%, a hCYP3A4_BQ_Pct_Inh of 26% and a hCYP3A4_DBF_Pct_Inh of 26%. This compound also yielded a hCYP2D6_AMMC_Pct_Inh on CYP2D6 of 39%. Further, the hCYP2C9_MFC_Pct_Inh at CYP2C9 is given as 54%. The compound further returned a hCYP1A2_CEC_Pct_Inh at CYP1A2 of 27%. In addition, the “Inf. D pIC50” value in series [6] (Candida parapsilosis B66126, 37 °C, 24 hours, resa time 4 hours) is under 4.2. The “Inf. B pIC50” value in the series on Microsporum canis B68128 (Microsporum canis B68128, 27 °C, 9 days, resa time 24 hours) was under 4.2. For the same compound, in series [7], the “%-compound metabolised_Met_hLM” value was found to be 17%. In addition, in series [8] (Sporothrix schenkii B62482, 27 °C, 4 days, resa time 24 hours, highest in-test concentration 64 μM), the “Inf. A pIC50” value is under 4.2. In series [9] (Trichophyton rubrum B68183, 27 °C, 7 days, resa time 24 hours), the “Inf. C pIC50” value is under 4.2.
`CC(=O)c1ccc(C2=NCc3cc(Cl)cc(Cl)c3-n3cccc32)cc1` [Compound 26, 1-[4-(8,10-dichloro-6H-pyrrolo[1,2-a][1,4]benzodiazepin-4-yl)phenyl]-ethanone] registered a melting point of 183.6 to 186.7 °C. Also, in series [1] (B70554, Trichophyton mentagrophytes B70554, 27 °C, 7 days, resa time 24 hours, read-out: Inf. G pIC50 (converted)), the IC50 is 3.98 µM. Also, the IC50 in series [2] (Aspergillus fumigatus B42928, 27 °C, 48 hours, resa time 17 hours, read-out: Inf. E pIC50 (converted)) was 1.58 µM. Further, the “%-compound metabolised Met_mLM” value in [3] stood at 45%. For the same compound, the “%-compound metabolised Met_gpLM” value in series [4] (setting [10]) is recorded as 44%. Further, the IC50 in series [5] (B66663, Cryptococcus neoformans B66663, 37 °C, 24 hours, resa time 4 hours, read-out: Inf. F pIC50 (converted)) was 10 µM. For the same compound, on CYP3A4, the hCYP3A4_BFC_Pct_Inh came to 33%, the hCYP3A4_BQ_Pct_Inh is listed as 32% and the hCYP3A4_DBF_Pct_Inh stood at 55%. At CYP2D6, this compound came in with a hCYP2D6_AMMC_Pct_Inh of 74%. The same compound registered a hCYP2C9_MFC_Pct_Inh at CYP2C9 of 69%. Besides, the hCYP1A2_CEC_Pct_Inh on CYP1A2 stood at 34%. In addition, the IC50 in series [6] (Candida parapsilosis B66126, 37 °C, 24 hours, resa time 4 hours, read-out: Inf. D pIC50 (converted)) is over 63.1 µM. The IC50 with Microsporum canis B68128 (B68128, Microsporum canis B68128, 27 °C, 9 days, resa time 24 hours, read-out: Inf. B pIC50 (converted)) is 0.631 µM. In addition, in series [7], the “%-compound metabolised_Met_hLM” value amounted to 19%. Besides, in [8] (B62482, Sporothrix schenkii B62482, 27 °C, 4 days, resa time 24 hours, highest in-test concentration 64 μM, read-out: Inf. A pIC50 (converted)), the IC50 is 1.26 µM. Moreover, the IC50 in series [9] (Trichophyton rubrum B68183, 27 °C, 7 days, resa time 24 hours, read-out: Inf. C pIC50 (converted)) was 0.0794 µM.

These data come from US9040523B2, “Antifungal 5,6-dihydro-4H-pyrrolo[1,2-α][1,4]-benzodiazepines and 6H-pyrrolo[1,2-α][1,4]benzodiazepines substituted with benzene derivatives” (JANSSEN PHARMACEUTICA NV, priority 2010, dated 2015).
